Laboratory results taken from article PMC6261651, “A functional proteomics platform to reveal the sequence determinants of lysine methyltransferase substrate selectivity” (Science Advances, 2018).
Entries after “also recorded” stand apart in the source; their conditions may differ. Blank lines part the entries; values can stand above or below the substance they belong to. Where no end group is shown, it is not given here. [ ]: non-standard residue; d: D form. Nle = CCCC[C@H](N)C(=O)O

What was measured:
Assay type in all cases: biochemical
[1] = target: T1, SMYD2 (Homo sapiens, UniProt Q9NRG4); assay: SPA initial rate measurements with peptide substrates, SMYD2; details: 200 nM SMYD2, 50 μM SAM (5:1 cold/hot), 80 μM substrate, room temperature, mean of three independent measurements (Fig. 2F), text gives words only
T1 construct: SMYD2 (full length) was expressed as a N-terminal glutathione S-transferase (GST) fusion; GST (N); made in house; host or cells: Escherichia coli BL21(DE3)
T1 sequence (Q9NRG4 whole entry, the tested form may be a part): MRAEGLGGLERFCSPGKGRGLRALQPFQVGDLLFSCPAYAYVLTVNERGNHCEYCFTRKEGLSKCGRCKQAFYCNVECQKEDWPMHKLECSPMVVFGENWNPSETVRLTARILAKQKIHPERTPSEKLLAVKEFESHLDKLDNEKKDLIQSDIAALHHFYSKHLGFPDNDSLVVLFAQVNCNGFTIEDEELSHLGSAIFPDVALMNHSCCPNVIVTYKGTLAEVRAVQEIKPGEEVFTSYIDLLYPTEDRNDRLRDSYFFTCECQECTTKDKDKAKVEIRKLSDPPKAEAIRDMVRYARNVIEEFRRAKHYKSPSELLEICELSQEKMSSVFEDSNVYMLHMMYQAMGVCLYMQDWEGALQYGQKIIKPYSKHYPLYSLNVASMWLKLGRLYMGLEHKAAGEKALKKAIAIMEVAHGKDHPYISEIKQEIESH
Excerpt: To measure enzyme activity, we developed a scintillation proximity assay (SPA), which quantified the transfer of tritium-labeled methyl groups from the cofactor and methyl donor S-adenosylmethionine (SAM) to each K-OPL set (Fig. 1B). SPAs permit sensitive analysis of enzymatic activity and are advantageous when the reaction product is unknown. This platform enabled us to rapidly determine a KMT’s preference for any amino acid (except cysteine) at any position ± three positions from a target lysine.
(§1) Reactions (10 μl) containing 1 μg of KMT, 1 μg of a K-OPL set, and 1 μCi of ^3H-SAM (PerkinElmer) in KMT reaction buffer [50 mM tris (pH 8.8), 5 mM MgCl2, and 4 mM dithiothreitol] were incubated for 1 hour at room temperature. Reactions were stopped by adding trifluoracetic acid to a final concentration of 0.5%, neutralized by diluting with 135 μl of 50 mM NaHCO3, and transferred to streptavidin-coated FlashPlates (PerkinElmer). Plates were incubated for 15 min, sealed, and counted in a MicroBeta2 liquid scintillation counter (PerkinElmer) for 1 min per sample. Initial rate measure and kinetic analysis were performed using the same procedure with 200 nM SMYD2, 50 μM SAM (5:1 cold/hot ratio), and 80 μM substrate (initial rate measurements) or as indicated (kinetic analysis). IC50 measurements were performed using the same conditions with 5 μM PER2 peptide as a substrate.

[2] = target: T1, SMYD2; assay: In vitro SMYD2 methyltransferase assay with protein substrates (SDS-PAGE, 3H fluorography); details: 1 μg of KMT, 1 μg of substrate, 1 μCi 3H-SAM, 1 hour, room temperature; 3H fluorography (Fig. 5A, 5B, fig. S5A)
Procedure: Reactions (10 μl) containing 1 μg of KMT, 1 μg of the indicated substrates, and 1 μCi of ^3H-SAM (PerkinElmer) in KMT reaction buffer were incubated for 1 hour at room temperature. Reactions were quenched by the addition of SDS loading buffer and resolved by SDS–polyacrylamide gel electrophoresis. Following the detection of total protein by Coomassie staining, gels were treated with EN^3HANCE (PerkinElmer) and dried, and methylated proteins were detected by autoradiography.
Fig. S5. In vitro SMYD2 assays with protein substrates. (A) Coomassie stained SDS-PAGE of recombinant control (HIS-GST), known substrates (p53, MAPKAPK3), and predicted substrates (PRDM11, GDAP1, MAP3K12) in the absence and presence of SMYD2. Reactions were carried out with 1 μg of SMYD2, 1 μg of substrate, and 1 μCi of 3H-SAM. 3H fluorograph shown below after 24 hour exposure at -80 °C (B) Cartoon repre- sentation of ZPK (PDB:
5CEN) showing plus and minus three amino acids from the target lysine (PO) as stick models.
(1 picture or pasted object on this page, not shown here)

[3] = target: T1, SMYD2; assay: IC50 measurements of Nle peptide inhibitors of SMYD2 using PER2 as a substrate (SPA); details: 200 nM SMYD2, 50 μM SAM, 5 μM PER2 peptide as substrate, mean of three (Fig. 4E), IC50 values not given
Procedure: as §1

[4] = target: T1, SMYD2; assay: SPA kinetic analysis of SMYD2 methylation of peptide substrates; details: 200 nM SMYD2, 50 μM SAM, varied substrate concentration, mean of three independent measurements (Fig. 4D)
Procedure: as §1

[5] = target: T1, SMYD2; assay: MALDI-TOF-MS and MS/MS analysis of methylation products, SMYD2; details: 200 nM KMT, 80 μM peptide, 50 μM SAM, 1 hour, room temperature; MALDI-TOF-MS (Fig. 3C)
Procedure: (§2) For MS experiments, 200 nM KMT, 80 μM peptide, and 50 μM SAM were incubated in KMT reaction buffer for 1 hour at room temperature. Reactions were quenched with 0.5% trifluoroacetic acid and analyzed by MS. KMT-reacted samples were deposited on a MALDI target plate (4 μl per spot) and mixed with 1 μl of matrix solution (α-cyano-4-hydroxycinnamic acid in 50% acetonitrile). MALDI-TOF-MS and MS/MS (positive ion mode at 1 kV) spectra were collected using SCIEX TOF/TOF 5800 MALDI MS spectrometer. The peptide fragmentation modeling and peak assignments were done using the Peptide Sequence Fragmentation Modeling tool (https://omics.pnl.gov/software/molecular-weight-calculator).

[6] = target: T2, G9a (Homo sapiens, UniProt Q96KQ7); assay: SPA initial rate measurements with peptide substrates, G9a; details: 3H-SAM, 50 μM SAM (5:1 cold/hot), 80 μM substrate, room temperature, mean of three independent measurements (Fig. 2D), text gives words only
T2 construct: G9a (amino acids 913 to 1210) was produced as a 6XHis N-terminal fusion; 6XHis (N); made in house; host or cells: Escherichia coli BL21(DE3)
T2 sequence (Q96KQ7 913-1210): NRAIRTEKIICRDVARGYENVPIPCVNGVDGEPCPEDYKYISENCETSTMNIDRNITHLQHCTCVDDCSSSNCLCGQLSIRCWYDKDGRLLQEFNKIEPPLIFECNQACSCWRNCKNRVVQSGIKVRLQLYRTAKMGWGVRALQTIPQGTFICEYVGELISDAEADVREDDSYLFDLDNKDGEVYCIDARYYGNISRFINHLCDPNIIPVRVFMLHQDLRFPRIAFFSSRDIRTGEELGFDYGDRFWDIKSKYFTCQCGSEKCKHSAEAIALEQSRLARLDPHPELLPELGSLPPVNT

[7] = target: T2, G9a; assay: MALDI-TOF-MS and MS/MS analysis of methylation products, G9a; details: 200 nM KMT, 80 μM peptide, 50 μM SAM, 1 hour, room temperature; MALDI-TOF-MS (Fig. 3A)
Procedure: as §2

[8] = target: T3, SET7/9 (Homo sapiens, UniProt Q8WTS6); assay: MALDI-TOF-MS and MS/MS analysis of methylation products, SET7/9; details: 200 nM KMT, 80 μM peptide, 50 μM SAM, 1 hour, room temperature; MALDI-TOF-MS (Fig. 3B)
T3 construct: purchased New England BioLabs M0223
T3 sequence (Q8WTS6 1-366): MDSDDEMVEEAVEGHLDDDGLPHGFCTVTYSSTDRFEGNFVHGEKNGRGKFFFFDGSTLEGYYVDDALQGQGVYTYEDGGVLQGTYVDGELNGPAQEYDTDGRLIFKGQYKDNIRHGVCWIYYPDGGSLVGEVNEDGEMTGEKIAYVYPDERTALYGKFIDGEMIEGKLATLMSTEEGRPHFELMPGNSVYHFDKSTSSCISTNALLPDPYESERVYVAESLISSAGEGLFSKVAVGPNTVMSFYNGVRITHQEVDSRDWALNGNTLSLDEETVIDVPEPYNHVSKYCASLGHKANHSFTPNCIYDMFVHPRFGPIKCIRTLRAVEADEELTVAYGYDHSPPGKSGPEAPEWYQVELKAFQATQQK
Procedure: as §2

[9] = target: T3, SET7/9; assay: SPA initial rate measurements with peptide substrates, SET7/9; details: 3H-SAM, 50 μM SAM (5:1 cold/hot), 80 μM substrate, room temperature, mean of three independent measurements (Fig. 2E), text gives words only

methylation of recombinant protein substrate by SMYD2 [2]: reduced compared to the wild-type PRDM11
Substance: PRDM11 K89D: PRDM11 mutant predicted to render this SMYD2 substrate deficient

inhibition of SMYD2 methylation of PER2 [3]: less effective
Substance: RKD[Nle]SKR [Nle derivative of RKDKSKR]

kinetic model of SMYD2 methylation [4]: followed a classical MM model
Substance: DKLKSKR [PER2 derivative peptide with aspartic acid in the P−3 position]

rate of methylation by SMYD2 (substrate efficiency) [1]: equally poor SMYD2 substrates
Substance: RKLKEKR [PER2 derivative peptide with glutamic acid in the P+1 position]

methylation products with SMYD2 [5]: addition of a single methyl group
Substance: RKLKSKR [PER2 K798, peptide corresponding to lysine 798 of PER2; SMYD2 substrate]
rate of methylation by SMYD2 (substrate efficiency) [1]: more efficient substrate than peptides corresponding to previously reported SMYD2 substrates p53 K370 and MAPKAPK3 K355

methylation products with G9a [7]: both monomethyl and dimethyl products
Substance: TARKRFK [optimal G9a peptide substrate derived from the K-OPL profile]
rate of methylation by G9a (substrate efficiency) [6]: more efficient substrate than H3K9 or WIZ

Second part, the substance before the results:

Substance: RKDKSKR [PER2 derivative peptide with aspartic acid in the P−1 position]
rate of methylation by SMYD2 (substrate efficiency) [1]: equally poor SMYD2 substrates

Substance: PRDM11: recombinant PRDM11 (amino acids 79 to 314)
methylation of recombinant protein substrate by SMYD2 [2]: methylated by SMYD2; also recorded: at least as efficiently as the known substrate, p53

Substance: SHLKSKK [p53 K370, peptide corresponding to previously reported SMYD2 substrate p53 K370, reference compound]
kinetic model of SMYD2 methylation [4]: standard Michaelis-Menten (MM) model | kinetic model of SMYD2 methylation ([4]; listed as p53): classical MM kinetics

Substance: WKLKSKR [optimal K-OPL-derived SMYD2 substrate, not found in any human protein]
kinetic model of SMYD2 methylation [4]: consistent with substrate inhibition | rate of methylation by SMYD2 (substrate efficiency) [1]: increased the rate of methylation

Substance: RRSKRRK [SCN5A K477, optimal SET7/9 substrate predicted by K-OPL]
methylation products with SET7/9 [8]: addition of a single methyl group | rate of methylation by SET7/9 (substrate efficiency) [9]: methylated at a faster rate than p53 K372
